Data reported in patent US20210261642A1, “SOLUBILITY OF GLP-1 PEPTIDE” (Novo Nordisk A/S, priority 2017, published 2021).

Assay: Assay (I): Determination of Solubility (96-well plate, pH 3.0-11.0, organic solvent 0-70% w/w, UV absorption at 280 nm)
Assay type: physicochemical
Settings: for Peptide concentration after 180 min / Peptide concentration after 24 h / Peptide concentration after 5 min: Method 1; for GLP-1 peptide concentration: Method 2 (precipitation), MeCN 57.3% w/w, 5° C.
Procedure: Assay (I): Determination of Solubility
96-Well Plate Preparation
96-well plates containing target peptide in a solid form were prepared in one of two ways:
Method 1 (evaporation): Addition of 100 μl stock solution of said peptide at a concentration of 4-6 mg/ml to each well of a 96-well half area plate (150 μl well size). Subsequently the solvent was evaporated by applying a vacuum until the solvent was completely removed.
Method 2 (precipitation): Addition of a certain volume of a stock solution of said peptide containing to each well of a 96-well half area plate followed by the addition of a certain volume of concentrated phosphoric acid to obtain a pH of 4.6 followed by addition of a certain volume of ethanol resulting in a final ethanol concentration of 20% v/v. Subsequently the plate was stored at 4° C. for 1 h and then centrifuged at 4,000 rpm for 20 min. Finally the supernatant was removed. The concentration of the stock solution was chosen in a way that the final amount of peptide after supernatant removal was >0.4 mg per well.
In both cases the stock solution was prepared by adding de-ionized water to a certain amount of powder of said peptide followed by a stepwise addition of small amounts of a concentrated sodium hydroxide solution until said peptide was completely in solution.
To determine solubility of a target peptide at different pH and organic solvent concentrations, two different buffer systems were used in independent experiments to cover the whole range from pH 3.0 to pH 11.0. Buffer system 1 covers pH 3.0-7.5 and buffer system 2 covers pH 7.5-11.0. For each buffer system 96 different solvent compositions were premixed in the following way: • 1. A low pH buffer (adjusted to either pH 3.0 or pH 7.5) and a high pH buffer (adjusted to either pH 7.5 or pH 11.0) were mixed at 8 different ratios to obtain values between pH 3.0 and pH 7.5 or pH 7.5 and pH 11.0, respectively. The total volume after mixing was 300 μl. • 2. 12 different amounts of organic solvent were then added to these buffers to obtain organic solvent (e.g. ethanol) concentrations between 0 and 70% w/w. • 3. Water was then added to obtain a total weight of 1.0 g of solvent in each well.
After preparing the 96 different solvent systems, 100 μl of each system was transferred to the 96-well plate containing the solid form of the target peptide (prepared as described in the section “96-well plate preparation”). The plate was then stored at a given temperature (between 5° C. and 70° C.) for a given time on a rotating shaker set to 400 rpm. At regular time intervals the plate was centrifuged (4,000 rpm for 10 min) and a 10 μl sample was taken from each well. The samples were then analysed by UV absorption at 280 nm for peptide quantification. Peptide concentration results are given as UV absorption at 280 nm of the sample subtracted UV absorption at 280 nm of a well comprising 10 μl water.
The buffers used were as follows: • Buffer system 1 (for the pH range from pH 3.0-7.5)
• Buffer system 2 (for the pH ranae from pH 7.5-11.0)
Solubility of liraglutide was determined using Assay (I) described herein. Liraglutide was prepared using Method 1 (evaporation) or Method 2 (precipitation) as described in subsection “96-well plate preparation”.

Peptide concentration after 180 min (MeCN 63.6% w/w, pH 9.5, 5° C.): 0.5 mg/mL
Peptide concentration after 24 h (MeCN 63.6% w/w, pH 9.5, 5° C.): 1.4 mg/mL
Peptide concentration after 5 min (MeCN 63.6% w/w, pH 10.0, 5° C.): 0.2 mg/mL
Peptide concentration after 180 min (MeCN 63.6% w/w, pH 10.0, 5° C.): 0.3 mg/mL
Peptide concentration after 24 h (MeCN 63.6% w/w, pH 10.0, 5° C.): 0.7 mg/mL
Peptide concentration after 5 min (MeCN 63.6% w/w, pH 10.5, 5° C.): 0.2 mg/mL
Peptide concentration after 180 min (MeCN 63.6% w/w, pH 10.5, 5° C.): 0.3 mg/mL
Peptide concentration after 24 h (MeCN 63.6% w/w, pH 10.5, 5° C.): 0.6 mg/mL
Peptide concentration after 5 min (MeCN 63.6% w/w, pH 11.0, 5° C.): 0.5 mg/mL
Peptide concentration after 180 min (MeCN 63.6% w/w, pH 11.0, 5° C.): 0.6 mg/mL
Peptide concentration after 24 h (MeCN 63.6% w/w, pH 11.0, 5° C.): 1.3 mg/mL
Peptide concentration after 5 min (MeCN 70.0% w/w, pH 5.6, 5° C.): 0.2 mg/mL
Peptide concentration after 180 min (MeCN 70.0% w/w, pH 5.6, 5° C.): 0.3 mg/mL
Peptide concentration after 24 h (MeCN 70.0% w/w, pH 5.6, 5° C.): 0.4 mg/mL
Peptide concentration after 5 min (MeCN 70.0% w/w, pH 6.2, 5° C.): 0.2 mg/mL
Peptide concentration after 180 min (MeCN 70.0% w/w, pH 6.2, 5° C.): 0.3 mg/mL
Peptide concentration after 24 h (MeCN 70.0% w/w, pH 6.2, 5° C.): 0.5 mg/mL
Peptide concentration after 5 min (MeCN 70.0% w/w, pH 6.9, 5° C.): 0.2 mg/mL
Peptide concentration after 180 min (MeCN 70.0% w/w, pH 6.9, 5° C.): 0.3 mg/mL
Peptide concentration after 24 h (MeCN 70.0% w/w, pH 6.9, 5° C.): 0.5 mg/mL
Peptide concentration after 5 min (MeCN 70.0% w/w, pH 7.5, 5° C.): 0.3 mg/mL
Peptide concentration after 180 min (MeCN 70.0% w/w, pH 7.5, 5° C.): 0.4 mg/mL
Peptide concentration after 24 h (MeCN 70.0% w/w, pH 7.5, 5° C.): 0.8 mg/mL
Peptide concentration after 5 min (MeCN 70.0% w/w, pH 8.0, 5° C.): 0.3 mg/mL
Peptide concentration after 180 min (MeCN 70.0% w/w, pH 8.0, 5° C.): 0.4 mg/mL
Peptide concentration after 24 h (MeCN 70.0% w/w, pH 8.0, 5° C.): 0.6 mg/mL
Peptide concentration after 5 min (MeCN 70.0% w/w, pH 8.5, 5° C.): 0.2 mg/mL
Peptide concentration after 180 min (MeCN 70.0% w/w, pH 8.5, 5° C.): 0.4 mg/mL
Peptide concentration after 24 h (MeCN 70.0% w/w, pH 8.5, 5° C.): 0.7 mg/mL
Peptide concentration after 5 min (MeCN 70.0% w/w, pH 9.0, 5° C.): 0.2 mg/mL
Peptide concentration after 180 min (MeCN 70.0% w/w, pH 9.0, 5° C.): 0.4 mg/mL
Peptide concentration after 24 h (MeCN 70.0% w/w, pH 9.0, 5° C.): 0.9 mg/mL
Peptide concentration after 5 min (MeCN 70.0% w/w, pH 9.5, 5° C.): 0.2 mg/mL
Peptide concentration after 180 min (MeCN 70.0% w/w, pH 9.5, 5° C.): 0.3 mg/mL
Peptide concentration after 24 h (MeCN 70.0% w/w, pH 9.5, 5° C.): 0.5 mg/mL
Peptide concentration after 5 min (MeCN 70.0% w/w, pH 10.0, 5° C.): 0.2 mg/mL
Peptide concentration after 180 min (MeCN 70.0% w/w, pH 10.0, 5° C.): 0.3 mg/mL
Peptide concentration after 24 h (MeCN 70.0% w/w, pH 10.0, 5° C.): 0.4 mg/mL
Peptide concentration after 5 min (MeCN 70.0% w/w, pH 10.5, 5° C.): 0.2 mg/mL
Peptide concentration after 180 min (MeCN 70.0% w/w, pH 10.5, 5° C.): 0.2 mg/mL
Peptide concentration after 24 h (MeCN 70.0% w/w, pH 10.5, 5° C.): 0.4 mg/mL
Peptide concentration after 5 min (MeCN 70.0% w/w, pH 11.0, 5° C.): 0.2 mg/mL
Peptide concentration after 180 min (MeCN 70.0% w/w, pH 11.0, 5° C.): 0.2 mg/mL
Peptide concentration after 24 h (MeCN 70.0% w/w, pH 11.0, 5° C.): 0.5 mg/mL
GLP-1 peptide concentration (pH 9.00, 5 min, after removal of outliers): 0.6 mg/mL
GLP-1 peptide concentration (pH 9.00, 5 min, before removal of outliers): 0.6 mg/mL
GLP-1 peptide concentration (pH 9.00, 180 min, after removal of outliers): 3.4 mg/mL
GLP-1 peptide concentration (pH 9.00, 180 min, before removal of outliers): 3.4 mg/mL
GLP-1 peptide concentration (pH 9.00, 24 h, after removal of outliers): 1.4 mg/mL
GLP-1 peptide concentration (pH 9.00, 24 h, before removal of outliers): 1.4 mg/mL
GLP-1 peptide concentration (pH 9.50, 5 min, after removal of outliers): 0.5 mg/mL
Structure (SMILES): CCCCCCCCCCCCCCCC(=O)N[C@@H](CCC(=O)NCCCC[C@H](NC(=O)[C@H](C)NC(=O)[C@H](C)NC(=O)[C@H](CCC(N)=O)NC(=O)CNC(=O)[C@H](CCC(=O)O)NC(=O)[C@H](CC(C)C)NC(=O)[C@H](Cc1ccc(O)cc1)NC(=O)[C@H](CO)NC(=O)[C@H](CO)NC(=O)[C@@H](NC(=O)[C@H](CC(=O)O)NC(=O)[C@H](CO)NC(=O)[C@@H](NC(=O)[C@H](Cc1ccccc1)NC(=O)[C@@H](NC(=O)CNC(=O)[C@H](CCC(=O)O)NC(=O)[C@H](C)NC(=O)[C@@H](N)Cc1cnc[nH]1)[C@@H](C)O)[C@@H](C)O)C(C)C)C(=O)N[C@@H](CCC(=O)O)C(=O)N[C@@H](Cc1ccccc1)C(=O)N[C@H](C(=O)N[C@@H](C)C(=O)N[C@@H](Cc1c[nH]c2ccccc12)C(=O)N[C@@H](CC(C)C)C(=O)N[C@H](C(=O)N[C@@H](CCCNC(=N)N)C(=O)NCC(=O)N[C@@H](CCCNC(=N)N)C(=O)NCC(=O)O)C(C)C)[C@@H](C)CC)C(=O)O [liraglutide, Arg34,Lys26-(N-epsilon-(gamma-L-glutamyl(N-alfa-hexadecanoyl)))-GLP-1(7-37)]
